From US20200016159A1, “N3-CYCLICALLY SUBSTITUTED THIENOURACILS AND USE THEREOF” (Bayer Aktiengesellschaft, priority 2016, published 2020)

Each compound was assayed against T1, human adenosine A2b receptor (Homo sapiens, UniProt P29275) (assay: Cellular in vitro reporter gene test for A2b receptor activity (antagonism of NECA)). Settings: recombinant CHO-K1 cells, CRE-luciferase reporter, co-incubation with EC50 concentration of NECA, 3 hours.
T1 sequence (P29275 1-332): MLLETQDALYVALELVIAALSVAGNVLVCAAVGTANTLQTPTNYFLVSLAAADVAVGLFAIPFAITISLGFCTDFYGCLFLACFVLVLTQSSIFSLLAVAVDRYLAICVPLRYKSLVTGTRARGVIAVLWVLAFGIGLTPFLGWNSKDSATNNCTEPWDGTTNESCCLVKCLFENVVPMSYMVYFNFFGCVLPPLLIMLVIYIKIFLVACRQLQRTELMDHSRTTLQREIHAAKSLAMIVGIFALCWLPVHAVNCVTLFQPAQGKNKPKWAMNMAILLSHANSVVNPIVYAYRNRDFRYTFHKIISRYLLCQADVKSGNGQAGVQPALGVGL
Assay type: cell-based
Set-up: expressed in transfected cells; host or cells: CHO-K1 (Chinese hamster ovary) with CRE-luciferase reporter
In short: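 Antagonism measured as block of NECA-induced, cAMP/CRE-dependent luciferase expression in recombinant A2b CHO-K1 cells. NECA used at the EC50 set in a pre-experiment on each test day; luminescence detected after 3 h. Reported as IC50, partly averaged and rounded to two significant figures.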

SMILES	IC50 [nM]
COC(=O)N=C1NCCN1Cc1sc2c(c1C)c(=O)n(C1COC1)c(=O)n2CCC(F)(F)F [Example 132, Methyl [1-{[5-methyl-3-(oxetan-3-yl)-2,4-dioxo-1-(3,3,3-trifluoropropyl)-1,2,3,4-tetrahydrothieno[2,3-d]pyrimidin-6-yl]methyl}imidazolidin-2-ylidene]carbamate]	11
COCCn1c(=O)n(C2CC2OC)c(=O)c2c(C)c(Cn3nc[nH]c3=O)sc21 (single isomer, unassigned) [Example 311, 3-(2-Methoxycyclopropyl)-1-(2-methoxyethyl)-5-methyl-6-[(5-oxo-4,5-dihydro-H-1,2,4-triazol-1-yl)methyl]thieno[2,3-d]pyrimidine-2,4(1H,3H)-dione]	44
COCCn1c(=O)n(C2CCCC2)c(=O)c2c(C)c(CN3CCNC3=NC(=O)OC)sc21 [Example 191, Methyl [1-{[3-cyclopentyl-1-(2-methoxyethyl)-5-methyl-2,4-dioxo-1,2,3,4-tetrahydrothieno[2,3-d]pyrimidin-6-yl]methyl}imidazolidin-2-ylidene]carbamate]	18
Cc1c(CN2CCNC2=O)sc2c1c(=O)n(C1CC1C)c(=O)n2CCCC(F)(F)F (single isomer, unassigned) [Example 244, 5-Methyl-3-(2-methylcyclopropyl)-6-[(2-oxoimidazolidin-1-yl)methyl]-1-(4,4,4-trifluorobutyl)thieno[2,3-d]pyrimidine-2,4(1H,3H)-dione]	3.3
Cc1c(CN2CCNC2=O)sc2c1c(=O)n(C1CC1C)c(=O)n2CCOC(F)(F)F (single isomer, unassigned) [Example 262, 5-Methyl-3-(2-methylcyclopropyl)-6-[(2-oxoimidazolidin-1-yl)methyl]-1-[2-(trifluoromethoxy)ethyl]thieno[2,3-d]pyrimidine-2,4(1H,3H)-dione]	1.2
Cc1c(Cn2nc[nH]c2=O)sc2c1c(=O)n(C1CC1)c(=O)n2CCF [Example 196, 3-Cyclopropyl-1-(2-fluoroethyl)-5-methyl-6-[(5-oxo-4,5-dihydro-1H-1,2,4-triazol-1-yl)methyl]thieno[2,3-d]pyrimidine-2,4(1H,3H)-dione]	210
Cc1c(CN2CCNC(=O)C2=O)sc2c1c(=O)n(C1(C)CC1)c(=O)n2CCC(F)(F)F [Example 59, 6-[(2,3-Dioxopiperazin-1-yl)methyl]-5-methyl-3-(1-methylcyclopropyl)-1-(3,3,3-trifluoropropyl)thieno[2,3-d]pyrimidine-2,4(1H,3H)-dione]	9.3
CCOCCn1c(=O)n(C2CC2)c(=O)c2c(C)c(Cn3nc[nH]c3=O)sc21 [Example 32, 3-Cyclopropyl-1-(2-ethoxyethyl)-5-methyl-6-[(5-oxo-4,5-dihydro-1H-1,2,4-triazol-1-yl)methyl]thieno[2,3-d]pyrimidine-2,4(1H,3H)-dione]	430
Cc1c(Cn2[nH]ccc2=O)sc2c1c(=O)n(C1CCC1)c(=O)n2CCC(F)(F)F [Example 312, 3-Cyclobutyl-5-methyl-6-[(5-oxo-2,5-dihydro-1H-pyrazol-1-yl)methyl]-1-(3,3,3-trifluoropropyl)thieno[2,3-d]pyrimidine-2,4(1H,3H)-dione]	15
Cc1c(CN2CCNC2=O)sc2c1c(=O)n(C1CC1C)c(=O)n2CCC(F)(F)F (single isomer, unassigned) [Example 240, 5-Methyl-3-(2-methylcyclopropyl)-6-[(2-oxoimidazolidin-1-yl)methyl]-1-(3,3,3-trifluoropropyl)thieno[2,3-d]pyrimidine-2,4(1H,3H)-dione]	2.4
CCCCn1c(=O)n([C@H]2C[C@@H]2C)c(=O)c2c(C)c(CN3CCNC3=O)sc21 [Example 230, 1-Butyl-5-methyl-3-[(1S,2S)-2-methylcyclopropyl]-6-[(2-oxoimidazolidin-1-yl)methyl]thieno[2,3-d]pyrimidine-2,4(1H,3H)-dione]	1.3
Cc1c(CN2CCNC2=O)sc2c1c(=O)n(C1CC1C)c(=O)n2CCC(F)(F)C(F)F (single isomer, unassigned) [Example 246, 5-Methyl-3-(2-methylcyclopropyl)-6-[(2-oxoimidazolidin-1-yl)methyl]-1-(3,3,4,4-tetrafluorobutyl)thieno[2,3-d]pyrimidine-2,4(1H,3H)-dione]	22
COCCn1c(=O)n(C2CC2(C)C)c(=O)c2c(C)c(CN3CCNC3=O)sc21 (single isomer, unassigned) [Example 105, 3-(2,2-Dimethylcyclopropyl)-1-(2-methoxyethyl)-5-methyl-6-[(2-oxoimidazolidin-1-yl)methyl]thieno[2,3-d]pyrimidine-2,4(1H,3H)-dione]	92
Cc1c(Cn2[nH]ccc2=O)sc2c1c(=O)n(C1CC(C)(C)C1)c(=O)n2CCC(F)(F)F [Example 314, 3-(3,3-Dimethylcyclobutyl)-5-methyl-6-[(5-oxo-2,5-dihydro-H-pyrazol-1-yl)methyl]-1-(3,3,3-trifluoropropyl)thieno[2,3-d]pyrimidine-2,4(1H,3H)-dione]	49
Cc1c(CN2CCNC2=O)sc2c1c(=O)n(C1CC1)c(=O)n2C[C@@H]1CCCO1 [Example 39, 3-Cyclopropyl-5-methyl-6-[(2-oxoimidazolidin-1-yl)methyl]-1-[(2S)-tetrahydrofuran-2-ylmethyl]thieno[2,3-d]pyrimidine-2,4(1H,3H)-dione]	240
Cc1c(CN2CCNC2=O)sc2c1c(=O)n(C1CC1)c(=O)n2CCOC(C)C [Example 33, 3-Cyclopropyl-1-(2-isopropoxyethyl)-5-methyl-6-[(2-oxoimidazolidin-1-yl)methyl]thieno[2,3-d]pyrimidine-2,4(1H,3H)-dione]	100
Cc1c(Cn2nc[nH]c2=O)sc2c1c(=O)n(C1CC1)c(=O)n2CCCCF [Example 198, 3-Cyclopropyl-1-(4-fluorobutyl)-5-methyl-6-[(5-oxo-4,5-dihydro-H-1,2,4-triazol-1-yl)methyl]thieno[2,3-d]pyrimidine-2,4(1H,3H)-dione]	190
Cc1c(CN2CCNC2=S)sc2c1c(=O)n(C1CC1)c(=O)n2CCC(F)(F)F [Example 10, 3-Cyclopropyl-5-methyl-6-[(2-thioxoimidazolidin-1-yl)methyl]-1-(3,3,3-trifluoropropyl)thieno[2,3-d]pyrimidine-2,4(1H,3H)-dione]	1.5
COC(=O)N=C1NCCN1Cc1sc2c(c1C)c(=O)n(C1CC1)c(=O)n2CC1CCCO1 (single isomer, unassigned) [Example 43, Methyl [1-{[3-cyclopropyl-5-methyl-2,4-dioxo-1-(tetrahydrofuran-2-ylmethyl)-1,2,3,4-tetrahydrothieno[2,3-d]pyrimidin-6-yl]methyl}imidazolidin-2-ylidene]carbamate]	12
Cc1c(Cn2[nH]ccc2=O)sc2c1c(=O)n(C1CC1C)c(=O)n2CCOC(F)(F)F (single isomer, unassigned) [Example 275, 5-Methyl-3-(2-methylcyclopropyl)-6-[(5-oxo-2,5-dihydro-1H-pyrazol-1-yl)methyl]-1-[2-(trifluoromethoxy)ethyl]thieno[2,3-d]pyrimidine-2,4(1H,3H)-dione]	63
Cc1c(CN2CCNC2=O)sc2c1c(=O)n([C@H]1C[C@@H]1C)c(=O)n2CC1CC1(F)F (single isomer, unassigned) [Example 251]	6.3
Cc1c(CN2CCNC(=O)C2=O)sc2c1c(=O)n(C1CC(F)(F)C1)c(=O)n2CCC(F)(F)F [Example 123, 3-(3,3-Difluorocyclobutyl)-6-[(2,3-dioxopiperazin-1-yl)methyl]-5-methyl-1-(3,3,3-trifluoropropyl)thieno[2,3-d]pyrimidine-2,4(1H,3H)-dione]	10
CO[C@H]1C[C@@H](n2c(=O)c3c(C)c(CN4CCNC4=O)sc3n(CCC(F)(F)F)c2=O)C1 [Example 154, 3-(cis-3-Methoxycyclobutyl)-5-methyl-6-[(2-oxoimidazolidin-1-yl)methyl]-1-(3,3,3-trifluoropropyl)thieno[2,3-d]pyrimidine-2,4(1H,3H)-dione]	23
COC(=O)N=C1NCCN1Cc1sc2c(c1C)c(=O)n(C1CC(F)(F)C1)c(=O)n2CCC(F)(F)F [Example 122, Methyl [1-{[3-(3,3-difluorocyclobutyl)-5-methyl-2,4-dioxo-1-(3,3,3-trifluoropropyl)-1,2,3,4-tetrahydrothieno[2,3-d]pyrimidin-6-yl]methyl}imidazolidin-2-ylidene]carbamate]	4.2
Cc1c(Cn2nc[nH]c2=O)sc2c1c(=O)n(C1(C)CC1)c(=O)n2C[C@@H]1CCCO1 [Example 84, 5-Methyl-3-(1-methylcyclopropyl)-6-[(5-oxo-4,5-dihydro-1H-1,2,4-triazol-1-yl)methyl]-1-[(2S)-tetrahydrofuran-2-ylmethyl]thieno[2,3-d]pyrimidine-2,4(1H,3H)-dione]	460
COCCn1c(=O)n(C2CC2OC)c(=O)c2c(C)c(Cn3nc[nH]c3=O)sc21 (racemic) [Example 309, 3-(2-Methoxycyclopropyl)-1-(2-methoxyethyl)-5-methyl-6-[(5-oxo-4,5-dihydro-1H-1,2,4-triazol-1-yl)methyl]thieno[2,3-d]pyrimidine-2,4(1H,3H)-dione]	110
CCc1c(CN2CCNC2=O)sc2c1c(=O)n(C1(C)CC1)c(=O)n2CCOC [Example 219, 5-Ethyl-1-(2-methoxyethyl)-3-(1-methylcyclopropyl)-6-[(2-oxoimidazolidin-1-yl)methyl]thieno[2,3-d]pyrimidine-2,4(1H,3H)-dione]	400
